According to patent US8846627B2, “Method for treatment of malaria” (The Second Military Medical University, priority 2009, dated 2014):

Test system: chloroquine sensitive (D6) strain of P. falciparum
Assay: In vitro anti-malarial activity assay (plasmodial LDH activity), D6 clone
Assay type: cell-based
Conditions: Plasmodium falciparum, D6; 72 h incubation, LDH readout; read-out: P. falciparum (D6 Clone) IC50
Description: In vitro anti-malarial activity of the representative compounds was determined against chloroquine sensitive (D6) and chloroquine-resistant (W2) strains of P. falciparum.
The anti-malarial activity was determined by measuring plasmodial LDH activity as described earlier (Jain, M.; Khan, S. I.; Tekwani, B. L.; Jacob, M. R.; Singh, S.; Singh, P. P.; Jain, R. Synthesis, anti-malarial, antileishmanial, and antimicrobial activities of some 8-quinolinamine analogues. Bioorg. Med. Chem. 2005, 13, 4458-4466). A suspension of red blood cells infected with D6 or W2 strains of P. falciparum (200 with 2% parasitemia and 2% hematocrit in RPMI 1640 medium supplemented with 10% human serum and 60 µg/mL Amikacin) was added to the wells of a 96-well plate containing 10 μL of serially diluted test samples. The plate was flushed with a gas mixture of 90% N2, 5% O2, and 5% CO2 and incubated at 37° C. for 72 h in a modular incubation chamber (Billups-Rothenberg, Calif.). Parasitic LDH activity was determined by using Malstat™ reagent (Flow Inc., Portland, Oreg.) according to the procedure of Makler and Hinrichs (M. T. Makler and D. J. Hinrichs, Measurement of the lactate dehydrogenase activity of Plasmodium falciparum as an assessment of parasitemia. J. Am. J. Trop. Med. Hyg. 1993, 48(2):205-210). Briefly, 20 μl, of the incubation mixture was mixed with 100 μL of the Malstat™ reagent and incubated at room temperature for 30 min Twenty microliters of a 1:1 mixture of NBT/PES (Sigma, St. Louis, Mo.) was then added and the plate was further incubated in the dark for 1 h. The reaction was then stopped by the addition of 100 μL of a 5% acetic acid solution. The plate was read at 650 nm. Artemisinin and chloroquine were included in each assay as the drug controls. IC50 values were computed from the dose-response curves. To determine the selectivity index of anti-malarial activity of compounds, their cytotoxicity in vitro to mammalian cells was also determined. The assay was performed in 96-well tissue culture-treated plates as described earlier (J. Mustafa, S. I. Khan, G. Ma, L. A. Walker and I. A. Khan, Synthesis and Anticancer Activities of Fatty Acid Analogs of Podophyllotoxin. Lipids. 2004, 39(2):167-172). Vero cells (monkey kidney fibroblasts) were seeded to the wells of 96-well plate at a density of 25,000 cells/well and incubated for 24 h. Samples at different concentrations were added and plates were again incubated for 48 h. The number of viable cells was determined by Neutral Red assay. IC50 values were obtained from dose-response curves. Doxorubicin was used as a positive control.

O=C(/C=C/c1ccc(O)cc1)OC[C@H]1O[C@@H](Oc2c(-c3ccc(O)cc3)oc3cc(O)cc(O)c3c2=O)[C@H](O)[C@@H](O)[C@@H]1O [Tiliroside]
IC50: 123 µM
